Assay results: ChEMBL document CHEMBL6074671, “Discovery of Pyridine-2-Carboxamides Derivatives as Potent and Selective HPK1 Inhibitors for the Treatment of Cancer” (J Med Chem, 2024)

Experiments:
[1] = target: Interleukin-1 receptor-associated kinase 4 (Homo sapiens, UniProt Q9NWZ3); assay: Inhibition of IRAK4 (unknown origin)
[2] = target: Serine/threonine-protein kinase PAK 3 (Homo sapiens, UniProt O75914); assay: Inhibition of PAK3 (unknown origin)
[3] = target: Mitogen-activated protein kinase kinase kinase kinase 5 (Homo sapiens, UniProt Q9Y4K4); assay: Inhibition of human GST-tagged full length recombinant MAP4K5 expressed in insect cells; design: species or system Insect cell
Sequence of Mitogen-activated protein kinase kinase kinase kinase 5 (Q9Y4K4 whole entry): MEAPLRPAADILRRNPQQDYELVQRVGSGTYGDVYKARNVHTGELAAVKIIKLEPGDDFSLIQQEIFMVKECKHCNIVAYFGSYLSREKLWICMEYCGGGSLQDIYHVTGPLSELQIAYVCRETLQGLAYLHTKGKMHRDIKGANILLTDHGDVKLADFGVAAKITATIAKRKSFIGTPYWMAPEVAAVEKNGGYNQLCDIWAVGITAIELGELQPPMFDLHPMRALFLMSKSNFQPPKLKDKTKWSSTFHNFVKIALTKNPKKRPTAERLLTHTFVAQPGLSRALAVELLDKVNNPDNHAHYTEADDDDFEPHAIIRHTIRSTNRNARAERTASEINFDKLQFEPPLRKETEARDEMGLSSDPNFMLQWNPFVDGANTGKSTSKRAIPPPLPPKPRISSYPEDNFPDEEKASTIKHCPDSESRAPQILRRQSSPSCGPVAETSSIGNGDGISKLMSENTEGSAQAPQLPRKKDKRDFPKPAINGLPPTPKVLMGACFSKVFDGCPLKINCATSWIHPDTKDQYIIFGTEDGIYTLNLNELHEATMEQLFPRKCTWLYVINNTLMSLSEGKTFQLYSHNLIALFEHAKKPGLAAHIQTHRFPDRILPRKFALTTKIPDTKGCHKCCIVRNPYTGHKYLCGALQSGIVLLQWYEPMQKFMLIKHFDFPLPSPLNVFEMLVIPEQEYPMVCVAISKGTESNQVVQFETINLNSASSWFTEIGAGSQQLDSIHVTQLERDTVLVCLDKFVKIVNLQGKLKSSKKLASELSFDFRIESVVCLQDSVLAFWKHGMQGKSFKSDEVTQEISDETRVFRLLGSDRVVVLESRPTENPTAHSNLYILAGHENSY

[4] = Genotoxicity in […] WP2 uvrA incubated for 48 to 72 hrs in presence of S9 fraction by AMES test; assay type: toxicity, subcellular; conditions: time 48-72 hrs
[5] = target: Mitogen-activated protein kinase kinase kinase 7 (Homo sapiens, UniProt O43318); assay: Inhibition of TAK1 (unknown origin)
[6] = target: T1, Mitogen-activated protein kinase kinase kinase kinase 3 (Homo sapiens, UniProt Q8IVH8); assay: Inhibition of human recombinant GST-tagged MAP4K3 ([…]) extracted from Baculovirus expression system
T1 sequence (Q8IVH8 whole entry): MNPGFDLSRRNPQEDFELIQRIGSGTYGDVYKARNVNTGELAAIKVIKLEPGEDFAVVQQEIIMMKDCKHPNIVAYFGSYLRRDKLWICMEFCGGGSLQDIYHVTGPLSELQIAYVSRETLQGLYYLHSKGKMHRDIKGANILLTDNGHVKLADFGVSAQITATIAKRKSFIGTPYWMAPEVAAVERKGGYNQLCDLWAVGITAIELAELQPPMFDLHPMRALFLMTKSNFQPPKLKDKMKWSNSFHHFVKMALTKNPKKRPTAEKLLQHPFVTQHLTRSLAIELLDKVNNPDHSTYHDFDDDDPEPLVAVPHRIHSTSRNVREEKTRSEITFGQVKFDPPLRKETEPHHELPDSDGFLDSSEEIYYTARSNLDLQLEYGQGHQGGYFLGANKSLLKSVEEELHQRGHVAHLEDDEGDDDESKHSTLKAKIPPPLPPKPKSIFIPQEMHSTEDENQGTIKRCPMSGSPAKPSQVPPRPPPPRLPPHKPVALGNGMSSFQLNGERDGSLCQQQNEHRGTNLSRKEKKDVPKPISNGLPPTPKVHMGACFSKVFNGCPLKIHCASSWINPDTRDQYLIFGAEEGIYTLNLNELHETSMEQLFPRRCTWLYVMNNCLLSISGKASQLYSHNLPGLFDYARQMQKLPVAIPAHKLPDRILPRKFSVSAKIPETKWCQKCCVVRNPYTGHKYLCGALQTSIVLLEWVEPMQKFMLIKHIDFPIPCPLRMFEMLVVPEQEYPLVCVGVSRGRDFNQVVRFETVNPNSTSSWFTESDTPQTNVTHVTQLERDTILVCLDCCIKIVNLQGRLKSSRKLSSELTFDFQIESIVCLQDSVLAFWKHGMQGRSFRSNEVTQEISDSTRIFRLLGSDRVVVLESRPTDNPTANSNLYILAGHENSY

Cytochrome P450 1A2 = Cytochrome P450 1A2 (Homo sapiens, UniProt P05177); assay: Inhibition of CYP1A2 in human liver microsomes using phenacetin O-demethylation as substrate incubated for 10 mins in presence of NADPH by LC-MS/MS analysis; assay type: ADME, Microsome
in vivo = conditions: Beagle, dog, iv, 1 mg/kg
Description: Volume of distribution in Beagle dog at 1 mg/kg, iv

[7] = Plasma protein binding in human assessed as unbound fraction at 2 uM incubated for 4 hrs by LC-MS/MS analysis; assay type: ADME, cell-free
[8] = target: Tyrosine-protein kinase ITK/TSK (Homo sapiens, UniProt Q08881); assay: Inhibition of ITK (unknown origin)
[9] = target: Voltage-gated inwardly rectifying potassium channel KCNH2 (Homo sapiens, UniProt Q12809); assay: Inhibition of human ERG expressed in CHO cells; assay type: toxicity, cell-based
[10] = Toxicity in Balb/c mouse assessed as effect on body weight loss at 1.5 to 12 mg/kg, po BID measured after 15 days; assay type: organism-based; conditions: in vivo, 360 h, dose 1.5-12 mg/kg, time 15 day
[11] = Toxicity in C57BL/6 mouse implanted with mouse MC38 cells assessed as increase in survival at high dose, po BID measured after 12 days; assay type: organism-based; conditions: in vivo, 288 h, time 12 day
[12] = target: Mitogen-activated protein kinase 14 (Homo sapiens, UniProt Q16539); assay: Inhibition of p38 alpha (unknown origin)
[13] = Inhibition of ABL (unknown origin); design: species or system Homo sapiens
[14] = Toxicity in C57BL/6 mouse implanted with mouse MC38 cells assessed as effect on body weight loss at high dose, po BID measured after 12 days in presence of anti-PD-1; assay type: organism-based; conditions: in vivo, 288 h, time 12 day
MC-38 [15] = assay: Synergistic antitumor activity against mouse MC38 cells implanted in C57BL/6 mouse model assessed as tumor growth inhibition at high dose, po BID measured after 12 days in presence of anti-PD-1 relative to control; assay type: functional; conditions: time 12 day
[16] = Plasma protein binding in dog assessed as unbound fraction at 2 uM incubated for 4 hrs by LC-MS/MS analysis; assay type: ADME, cell-free, Canis lupus familiaris
[17] = Inhibition of pSLP76 in human PBMC cells incubated for 4 hrs by HTRF method; assay type: cell-based
[18] = target: Tyrosine-protein kinase JAK3 (Homo sapiens, UniProt P52333); assay: Inhibition of JAK3 (unknown origin)
Sequence of Tyrosine-protein kinase JAK3 (P52333 whole entry): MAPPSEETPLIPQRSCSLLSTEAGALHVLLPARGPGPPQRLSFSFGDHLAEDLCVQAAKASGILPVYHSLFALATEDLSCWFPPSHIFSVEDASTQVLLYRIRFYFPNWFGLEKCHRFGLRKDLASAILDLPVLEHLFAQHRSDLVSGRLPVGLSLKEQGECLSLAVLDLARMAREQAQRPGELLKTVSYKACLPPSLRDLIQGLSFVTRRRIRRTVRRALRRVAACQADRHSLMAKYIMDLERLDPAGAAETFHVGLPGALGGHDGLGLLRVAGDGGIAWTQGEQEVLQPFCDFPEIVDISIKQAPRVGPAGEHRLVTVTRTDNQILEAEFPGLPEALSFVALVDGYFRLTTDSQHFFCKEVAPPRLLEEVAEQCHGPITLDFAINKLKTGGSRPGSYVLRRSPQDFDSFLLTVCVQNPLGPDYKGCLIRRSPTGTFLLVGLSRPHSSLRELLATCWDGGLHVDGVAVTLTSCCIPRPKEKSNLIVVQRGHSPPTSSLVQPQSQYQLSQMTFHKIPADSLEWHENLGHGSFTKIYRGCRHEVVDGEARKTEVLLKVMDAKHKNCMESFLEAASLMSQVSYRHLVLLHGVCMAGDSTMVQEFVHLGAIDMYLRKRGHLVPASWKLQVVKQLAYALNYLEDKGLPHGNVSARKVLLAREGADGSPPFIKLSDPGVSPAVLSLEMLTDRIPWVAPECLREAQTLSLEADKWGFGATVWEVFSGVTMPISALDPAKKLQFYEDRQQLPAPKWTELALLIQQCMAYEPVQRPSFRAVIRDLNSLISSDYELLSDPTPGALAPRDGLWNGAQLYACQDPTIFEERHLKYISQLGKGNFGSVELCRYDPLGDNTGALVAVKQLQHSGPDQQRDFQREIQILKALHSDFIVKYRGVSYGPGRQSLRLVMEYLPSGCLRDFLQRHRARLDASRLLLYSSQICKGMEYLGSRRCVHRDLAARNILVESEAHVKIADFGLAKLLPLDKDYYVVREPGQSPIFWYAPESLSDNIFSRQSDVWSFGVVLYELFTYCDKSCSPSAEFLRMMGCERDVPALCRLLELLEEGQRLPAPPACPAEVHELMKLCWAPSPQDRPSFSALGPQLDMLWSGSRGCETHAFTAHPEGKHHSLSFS

[19] = target: Serine/threonine-protein kinase TAO2 (Homo sapiens, UniProt Q9UL54); assay: Inhibition of TAOK2 (unknown origin)
Sequence of Serine/threonine-protein kinase TAO2 (Q9UL54 whole entry): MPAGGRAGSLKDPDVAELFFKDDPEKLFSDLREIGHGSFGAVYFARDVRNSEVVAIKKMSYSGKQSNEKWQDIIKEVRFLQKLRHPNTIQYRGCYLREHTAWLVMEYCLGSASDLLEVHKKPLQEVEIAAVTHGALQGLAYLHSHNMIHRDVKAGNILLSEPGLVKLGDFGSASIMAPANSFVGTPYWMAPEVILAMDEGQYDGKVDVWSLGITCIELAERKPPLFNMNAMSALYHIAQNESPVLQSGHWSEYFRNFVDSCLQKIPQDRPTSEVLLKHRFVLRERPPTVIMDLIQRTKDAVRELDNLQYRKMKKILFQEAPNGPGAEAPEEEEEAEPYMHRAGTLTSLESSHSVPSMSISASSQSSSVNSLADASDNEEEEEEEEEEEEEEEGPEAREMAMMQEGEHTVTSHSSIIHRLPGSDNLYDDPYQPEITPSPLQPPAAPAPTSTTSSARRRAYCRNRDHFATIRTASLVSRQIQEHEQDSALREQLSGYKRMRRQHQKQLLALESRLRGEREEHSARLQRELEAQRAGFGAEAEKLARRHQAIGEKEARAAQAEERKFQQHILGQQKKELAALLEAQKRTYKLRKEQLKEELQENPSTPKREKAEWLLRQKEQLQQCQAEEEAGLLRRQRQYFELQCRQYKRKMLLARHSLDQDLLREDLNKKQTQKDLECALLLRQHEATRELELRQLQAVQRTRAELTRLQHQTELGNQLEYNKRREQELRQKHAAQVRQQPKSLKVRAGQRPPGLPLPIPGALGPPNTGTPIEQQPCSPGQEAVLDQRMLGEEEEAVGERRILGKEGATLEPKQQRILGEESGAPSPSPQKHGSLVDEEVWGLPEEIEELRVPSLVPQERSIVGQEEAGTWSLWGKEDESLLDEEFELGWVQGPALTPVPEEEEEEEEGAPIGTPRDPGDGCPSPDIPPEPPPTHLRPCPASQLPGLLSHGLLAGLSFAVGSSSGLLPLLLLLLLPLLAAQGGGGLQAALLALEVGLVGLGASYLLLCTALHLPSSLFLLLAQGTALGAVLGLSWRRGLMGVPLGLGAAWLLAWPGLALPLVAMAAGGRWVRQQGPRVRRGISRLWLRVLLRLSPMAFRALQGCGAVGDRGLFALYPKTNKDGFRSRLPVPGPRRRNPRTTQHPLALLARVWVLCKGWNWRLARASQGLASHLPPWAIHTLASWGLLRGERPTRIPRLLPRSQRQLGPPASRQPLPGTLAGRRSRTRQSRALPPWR

[20] = Plasma protein binding in rat assessed as unbound fraction at 2 uM incubated for 4 hrs by LC-MS/MS analysis; assay type: ADME, cell-free
Cytochrome P450 2C9 = Cytochrome P450 2C9 (Homo sapiens, UniProt P11712); assay: Inhibition of CYP2C9 in human liver microsomes using diclofenac 4-hydroxylation as substrate incubated for 10 mins in presence of NADPH by LC-MS/MS analysis; assay type: ADME, Microsome
[21] = Toxicity in C57BL/6 mouse implanted with mouse MC38 cells assessed as effect on body weight loss at low dose, po BID measured after 12 days; assay type: organism-based; conditions: in vivo, 288 h, time 12 day
[22] = target: Receptor-type tyrosine-protein kinase FLT3 (Homo sapiens, UniProt P36888); assay: Inhibition of FLT3 (unknown origin)
MC-38 [23] = assay: Synergistic antitumor activity against mouse MC38 cells implanted in C57BL/6 mouse model assessed as CDI value at high dose, po BID measured after 12 days in presence of anti-PD-1; assay type: functional; conditions: time 12 day
[24] = Genotoxicity in Salmonella typhimurium TA1535 incubated for 48 to 72 hrs in presence of S9 fraction by AMES test; assay type: toxicity, subcellular; conditions: salmonella enterica subsp. enterica serovar typhimurium, time 48-72 hrs
[25] = target: Tyrosine-protein kinase JAK1 (Homo sapiens, UniProt P23458); assay: Inhibition of JAK1 (unknown origin)
[26] = Dose normalized AUC (0 to 24 hrs) in Balb/c mouse at 10 mg/kg, po; assay type: ADME, organism-based; conditions: in vivo
[27] = target: Proto-oncogene tyrosine-protein kinase Src (Homo sapiens, UniProt P12931); assay: Inhibition of SRC (unknown origin)
Cytochrome P450 3A4 = Cytochrome P450 3A4 (Homo sapiens, UniProt P08684); assay: Inhibition of CYP3A4 in human liver microsomes using midazolam 1-hydroxylation as substrate incubated for 10 mins in presence of NADPH by LC-MS/MS analysis; assay type: ADME, Microsome
Sequence of Cytochrome P450 3A4 (P08684 whole entry): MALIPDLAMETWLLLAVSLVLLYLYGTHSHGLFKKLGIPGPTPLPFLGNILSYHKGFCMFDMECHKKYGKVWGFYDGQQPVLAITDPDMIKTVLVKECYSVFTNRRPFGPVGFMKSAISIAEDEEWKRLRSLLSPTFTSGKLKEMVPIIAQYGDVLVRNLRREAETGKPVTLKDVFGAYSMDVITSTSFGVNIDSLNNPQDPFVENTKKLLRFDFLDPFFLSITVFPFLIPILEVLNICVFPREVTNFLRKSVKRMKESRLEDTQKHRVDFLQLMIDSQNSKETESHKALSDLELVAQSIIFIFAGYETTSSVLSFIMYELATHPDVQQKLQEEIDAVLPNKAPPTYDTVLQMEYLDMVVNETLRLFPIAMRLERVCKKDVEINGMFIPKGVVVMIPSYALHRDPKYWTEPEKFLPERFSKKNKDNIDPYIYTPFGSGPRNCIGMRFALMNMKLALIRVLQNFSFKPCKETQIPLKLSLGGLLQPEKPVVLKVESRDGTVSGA

Sequence of Serine/threonine-protein kinase PAK 3 (O75914 whole entry): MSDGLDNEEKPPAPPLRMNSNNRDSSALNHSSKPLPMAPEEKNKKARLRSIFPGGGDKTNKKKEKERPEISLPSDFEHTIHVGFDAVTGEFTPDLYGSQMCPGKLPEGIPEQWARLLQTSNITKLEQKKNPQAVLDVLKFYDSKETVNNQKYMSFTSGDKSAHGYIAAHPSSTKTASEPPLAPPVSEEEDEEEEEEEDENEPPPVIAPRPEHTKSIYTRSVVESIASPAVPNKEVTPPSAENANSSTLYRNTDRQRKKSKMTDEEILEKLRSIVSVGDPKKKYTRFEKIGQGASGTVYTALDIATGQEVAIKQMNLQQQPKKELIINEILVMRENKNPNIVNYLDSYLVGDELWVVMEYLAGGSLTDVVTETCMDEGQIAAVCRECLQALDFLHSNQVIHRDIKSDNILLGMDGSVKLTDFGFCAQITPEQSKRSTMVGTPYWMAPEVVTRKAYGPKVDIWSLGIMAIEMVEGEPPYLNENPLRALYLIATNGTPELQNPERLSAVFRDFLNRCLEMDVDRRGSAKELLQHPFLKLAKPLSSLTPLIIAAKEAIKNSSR
Sequence of Interleukin-1 receptor-associated kinase 4 (Q9NWZ3 whole entry): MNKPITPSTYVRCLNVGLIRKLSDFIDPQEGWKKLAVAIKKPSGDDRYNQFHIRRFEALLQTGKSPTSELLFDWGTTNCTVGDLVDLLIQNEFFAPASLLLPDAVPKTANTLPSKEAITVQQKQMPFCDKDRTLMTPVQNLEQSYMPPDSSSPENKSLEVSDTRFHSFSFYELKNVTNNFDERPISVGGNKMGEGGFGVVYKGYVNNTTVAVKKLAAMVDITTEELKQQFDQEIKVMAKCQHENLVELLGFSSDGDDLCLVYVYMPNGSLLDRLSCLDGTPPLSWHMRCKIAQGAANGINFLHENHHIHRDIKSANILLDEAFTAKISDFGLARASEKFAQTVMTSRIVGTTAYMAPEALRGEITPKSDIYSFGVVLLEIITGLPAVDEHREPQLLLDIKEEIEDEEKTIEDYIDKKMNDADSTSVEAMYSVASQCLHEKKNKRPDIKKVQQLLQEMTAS

Q: Which IC50 [1] does the source give for `COc1cc(Nc2ccc3c(n2)CN(C)C32CCN(C3COC3)CC2)c(C(N)=O)nc1-c1cccc2c1ncn2C` here?
A: Its IC50 is 3.5 µM.

Q: What about the IC50 [2] of the same molecule?
A: The IC50 was greater than 10 µM.

Q: And the IC50 [3]?
A: Its IC50 is 0.185 µM.

Q: What about the Activity [4] of the same molecule?
A: The Activity was “Non-toxic”.

Q: And the IC50 [5]?
A: The IC50 was greater than 10 µM.

Q: What about the IC50 [6] of the same molecule?
A: The IC50 was 0.325 µM.

Q: And the IC50 (Cytochrome P450 1A2)?
A: Its IC50 is greater than 50 µM.

Q: And the Vd (in vivo)?
A: The Vd was 5.58 L/kg.

Q: What about the fraction unbound at 4 h, 2 µM [7] of the same molecule?
A: The fraction unbound at 4 h, 2 µM was 0.129.

Q: What about the IC50 [8] of the same molecule?
A: Its IC50 is greater than 10 µM.

Q: What about the IC50 [9] of the same molecule?
A: Its IC50 is greater than 10 µM.

Q: What about the Activity [10] of the same molecule?
A: Its Activity is “Non-toxic”.

Q: And the Activity [11]?
A: The Activity was “Non-toxic”.

Q: And the IC50 [12]?
A: Its IC50 is greater than 10 µM.

Q: And the IC50 [13]?
A: Its IC50 is 4.42 µM.

Q: What about the Activity [14] of the same molecule?
A: Its Activity is “Non-toxic”.

Q: What about the TGI (MC-38 [15]) of the same molecule?
A: The TGI was 83.3%.

Q: And the fraction unbound at 4 h, 2 µM [16]?
A: Its fraction unbound at 4 h, 2 µM is 0.309.

Q: What about the IC50 [17] of the same molecule?
A: The IC50 was 0.0199 µM.

Q: And the IC50 [18]?
A: Its IC50 is greater than 10 µM.

Q: What about the IC50 [19] of the same molecule?
A: Its IC50 is greater than 10 µM.

Q: What about the fraction unbound at 4 h, 2 µM [20] of the same molecule?
A: The fraction unbound at 4 h, 2 µM was 0.058.

Q: What about the IC50 (Cytochrome P450 2C9) of the same molecule?
A: The IC50 was greater than 50 µM.

Q: And the Activity [21]?
A: Its Activity is “Non-toxic”.

Q: What about the IC50 [22] of the same molecule?
A: Its IC50 is 0.317 µM.

Q: And the Activity (MC-38 [23])?
A: Its Activity is 0.57.

Q: What about the Activity [24] of the same molecule?
A: The Activity was “Non-toxic”.

Q: And the IC50 [25]?
A: The IC50 was greater than 10 µM.

Q: What about the AUC/dose [26] of the same molecule?
A: Its AUC/dose is 408.8 ng·h/mL.

Q: And the IC50 [27]?
A: Its IC50 is 2.11 µM.

Q: And the IC50 (Cytochrome P450 3A4)?
A: Its IC50 is greater than 50 µM.
